pEC50: −log10 of the molar value.
Each molecule was assayed on T125A mutant virus (HIV-1 NL-432 recombinant molecular clone, IN gene) (assay: HIV replication inhibition assay against integrase 124/125 mutant virus (Test Example 2)). Details: Human immunodeficiency virus 1, MT4, read-out: EC50 against T125A mutant virus, T125A mutant virus (HIV-1 NL-432 IN gene), MT-4 cells, MTT.
Assay type: cell-based
Protocol: Persistently HIV (HTLV-IIIB strain) infected human T cell strain Molt-4 clone8 was cultured in RPMI-1640 medium supplemented with 10% fetal bovine serum and the supernatant was filtered, then the virus titer was measured and stored at −80° C. Polymorphic mutations in HIV-1-infected patients have been observed in amino acids 124 and 125 on the HIV-1 integrase (IN) gene. A point mutation was introduced on the amino acids 124 and/or 125 of IN gene of the HIV-1 NL-432 recombinant molecular clone to generate a mutant virus plasmid construct. These mutant virus plasmids were transfected into 293T cells, and after two days, the supernatant was filtered and then the virus titer was measured and stored at −80° C. Each anti-HIV active substance was diluted with culture medium described above to the designated concentration, which was dispensed into 96-well microtiter plate by 50 μL. Next, 100 μL of MT-4 cell suspension (2.5×10^4 cells) was dispensed into each well, then 50 μl of HIV-containing supernatant diluted with culture medium described above was added thereto (60 pfu (plaque forming unit)).
Cells were cultured at 37° C. in CO2 incubator for four days, then 30 μL of MTT (3-(4,5-dimethylthiazole-2-yl)-2,5-diphenyltetrazolyum bromide) reagent (5 mg/mL in PBS) was added to all wells followed by incubation for 1 hour. In this step, MTT was reduced to insoluble formazan in living cells. To elute generated formazan, 150 μL of the culture supernatant was removed from all wells, then 150 μL of cell lysis solution (10% Triton X-100 and 0.4% (v/v)-HCl containing isopropanol) was added thereto, followed by shaking with a plate mixer. The formazan was measured with micro plate reader at OD: 560 nm and 690 nm (reference wavelength) and the result was compared with the reference wells. EC50 means the compound concentration at which 50% of cytotoxicity caused by virus infection is inhibited.

Row | Structure (SMILES) | pEC50
1 | Cc1ccc(-c2c([C@H](OC(C)(C)C)C(=O)O)c(C)c3c4c2cc(C)n4C(C)CN3CCN(C)C)cc1 (mixture of isomers) [Compound I-144] | 7.43
2 | Cc1c([C@H](OC(C)(C)C)C(=O)O)c(-c2ccc(Cl)cc2)c2cc(C)n3c2c1N(S(=O)(=O)CCN(C)C)CC3 [Compound I-030] | 7.64
3 | COC(=O)N1CCn2c(C)cc3c(-c4ccc(Cl)cc4)c([C@H](OC(C)(C)C)C(=O)O)c(C)c1c32 [Compound I-031] | 7.96
4 | Cc1c([C@H](OC(C)(C)C)C(=O)O)c(-c2ccc(Cl)cc2)c2cc(C)n3c2c1N(S(=O)(=O)C1CC1)CC3 [Compound I-032] | 8.30
5 | [2H]C1([2H])N(S(C)(=O)=O)c2c(C)c([C@H](OC(C)(C)C)C(=O)O)c(-c3ccc(Cl)cc3)c3cc(C)n(c23)C1([2H])[2H] [Compound I-034] | 8.02
6 | Cc1c([C@H](OC(C)(C)C)C(=O)O)c(-c2ccc(Cl)cc2)c2cc(C)n3c2c1N(CC(F)F)CC3 [Compound I-035] | 7.85
7 | Cc1c([C@H](OC(C)(C)C)C(=O)O)c(-c2ccc(Cl)cc2)c2cc(C)n3c2c1N(S(C)(=O)=O)[C@@H](C)C3 [Compound I-036] | 8.19
8 | Cc1c([C@H](OC(C)(C)C)C(=O)O)c(-c2ccc(Cl)cc2)c2c(Cl)c(C)n3c2c1N(C)CC3 [Compound I-037] | 7.52
9 | CCNC(=O)N1CCn2c(C)cc3c(-c4ccc(Cl)cc4)c([C@H](OC(C)(C)C)C(=O)O)c(C)c1c32 [Compound I-038] | 7.35
10 | [2H]C1([2H])N(S(C)(=O)=O)c2c(C)c([C@H](OC(C)(C)C)C(=O)O)c(-c3ccc(Cl)cc3)c3c(F)c(C)n(c23)C1([2H])[2H] [Compound I-040] | 7.96
11 | Cc1c([C@H](OC(C)(C)C)C(=O)O)c(-c2ccc(Cl)cc2)c2cc(C)n3c2c1N(S(C)(=O)=O)[C@@H](CCN1CCOCC1)C3 [Compound I-045] | 7.24
12 | CC(=O)N1c2c(C)c([C@H](OC(C)(C)C)C(=O)O)c(-c3ccc(Cl)cc3)c3cc(C)n(c23)C[C@@H]1C [Compound I-046] | 7.74
13 | COCC(=O)N1CCn2c(C)cc3c(-c4ccc(C)cc4)c([C@H](OC(C)(C)C)C(=O)O)c(C)c1c32 [Compound I-047] | 7.34
14 | Cc1c([C@H](OC(C)(C)C)C(=O)O)c(-c2ccc(C(F)F)cc2)c2cc(C)n3c2c1N(C)CC3 [Compound I-049] | 7.66
15 | Cc1c([C@H](OC(C)(C)C)C(=O)O)c(-c2ccc(C(F)(F)F)cc2)c2cc(C)n3c2c1N(C)CC3 [Compound I-050] | 7.31
16 | Cc1c(F)cc(-c2c([C@H](OC(C)(C)C)C(=O)O)c(C)c3c4c2cc(C)n4CCN3C)cc1F [Compound I-051] | 7.66
17 | Cc1c([C@H](OC(C)(C)C)C(=O)O)c(-c2ccc(Cl)cc2)c2c(F)c(C)n3c2c1N(S(C)(=O)=O)CC3 [Compound I-052] | 8.05
18 | Cc1c([C@H](OC(C)(C)C)C(=O)O)c(-c2ccc(Cl)cc2)c2cc(C)n3c2c1N(C)[C@@H](C)C3 [Compound I-053] | 8.25
19 | Cc1c([C@H](OC(C)(C)C)C(=O)O)c(-c2ccc(Cl)cc2)c2cc(C)n3c2c1NC(=O)C3C (stereo partly shown) [Compound I-054] | 7.32
20 | Cc1c([C@H](OC(C)(C)C)C(=O)O)c(-c2ccc(Cl)cc2)c2ccn3c2c1N(S(C)(=O)=O)CC3 [Compound I-056] | 7.23
21 | Cc1c([C@H](OC(C)(C)C)C(=O)O)c(-c2ccc(Cl)cc2)c2cc(C)n3c2c1N(C)[C@H](C)C3 [Compound I-057] | 8.57
22 | Cc1c([C@H](OC(C)(C)C)C(=O)O)c(-c2ccc(Cl)cc2)c2cc(C)n3c2c1N(S(C)(=O)=O)[C@H](C)C3 [Compound I-060] | 7.85
23 | CC(=O)N1c2c(C)c([C@H](OC(C)(C)C)C(=O)O)c(-c3ccc(Cl)cc3)c3cc(C)n(c23)C[C@H]1C [Compound I-061] | 8.02

Same assay, conditions: read-out: EC50 against T125A mutant virus; T125A mutant virus (HIV-1 NL-432 IN gene), MT-4 cells, MTT

Row | Structure (SMILES) | pEC50
24 | Cc1c([C@H](OC(C)(C)C)C(=O)O)c(-c2ccc(Cl)cc2)c2cc(C)n3c2c1NC(=O)C3C (stereo partly shown) [Compound I-055] | 7.62
25 | Cc1c([C@H](OC(C)(C)C)C(=O)O)c(-c2ccc(Cl)cc2)c2cc(C)n3c2c1N(S(C)(=O)=O)CC3C (stereo partly shown) [Compound I-062] | 7.47

Source: patent US10494380B2, “Nitrogen-containing tricyclic derivatives having HIV replication inhibitory activity” (priority 2015, dated 2019)
